Converted amounts (≈) assume the structure as drawn. Where two headings read alike, the source gives them in different places.

Data set [1] is described as follows: Measurement of stability of anisomycin derivatives in rat plasma. Format: in vitro ADME. On the procedure: Experiment 1: Measurement of stability of anisomycin derivatives in rat plasma
To investigate the stability of the present compounds in rat plasma, the half-life thereof was measured. For the measurement, an approximately 0.25 mg portion of each test compound was dissolved in 150 μl of rat plasma, and the solution was incubated at 37° C. Aliquots were taken over specific periods of time, and the amount of residual anisomycin derivative was measured by HPLC to determine the half-life thereof.

Data set [2] concerns FM3A cells. Description: Inhibitory activity on proliferation of FM3A culture. The data set is classed as cell-based, mouse. As to conditions: for IC50: Mus musculus, read-out: IC50 (50% proliferation inhibition concentration). On the procedure:
Experiment 2: Measurement of inhibitory activity of anisomycin derivatives on proliferation of FM3A culture
The proliferation-inhibiting activity of the present compounds against a culture of FM3A cells derived from mouse mammary tumor was investigated. Into each well of a 96-well microplate was added 50 μl of 10^5 cells/ml of FM3A cells, which had been suspended in a Dulbecco-modified Eagle culture medium containing 10% fetal calf serum. The IC50 (50% proliferation inhibition concentration) was calculated based on the number of surviving cells for a prescribed concentration of the test compounds.

For data set [3], the system named is Candida albicans. Description: Antifungal activity: growth inhibition of Candida albicans. Format: cell-based. As to conditions: potato dextrose agar, 25° C., 7 days. On the procedure:
(§1) Experiment 3: Measurement of antifungal activity of anisomycin derivatives
(§2) The growth-inhibiting activity of the present compounds against various fungi was investigated. Into each well of a 6-well microplate, 0.3 ml of a solution of each test compound and 2.7 ml of a sterile solution of potato dextrose agar culture medium (kept at a temperature of about 50° C.) were added. After solidification, 5 μl from each suspension of test cells (yeast: approx. 10^3 cells/ml; mold: approx. 10^4 spores/ml) was inoculated onto the above-mentioned agar medium, and the cultures were maintained at 25° C. for 7 days. The growth of the test cells was observed, and the minimum concentration (MIC value) was determined at which complete inhibition of growth occurred. The test compounds were used after adjustment to 1 mg/ml with dimethylsulfoxide and dilution with distilled water.

Data set [4] has as its system Saccharomyces cereviceae. Description: Antifungal activity: growth inhibition of Saccharomyces cereviceae. Format: cell-based. As to conditions: potato dextrose agar, 25° C., 7 days. On the procedure: as §1, §2
Data set [5] relates to Cryptococcus neoformans. Description: Antifungal activity: growth inhibition of Cryptococcus neoformans. As to conditions: potato dextrose agar, 25° C., 7 days. Format: cell-based. On the procedure:
as §1, §2

Data set [6] has as its system Aspergillus fumigatus. Description: Antifungal activity: growth inhibition of Aspergillus fumigatus. The data set is classed as cell-based. The following applies: potato dextrose agar, 25° C., 7 days. On the procedure: as §1, §2
Data set [7] deals with Mucor rouxii. Description: Antifungal activity: growth inhibition of Mucor rouxii. The data set is classed as cell-based. The following applies: potato dextrose agar, 25° C., 7 days. On the procedure: as §1, §2
In data set [8] the test system is P388 leukemia tumor cells. Description: Antitumor effect of anisomycin derivatives in vivo (P388 leukemia, CDF1 mice). As to conditions: P388 i.p. in CDF1 mice; 10 mg/kg i.p. once a day for 10 days. More on the design: species or system mouse. On the procedure: Experiment 4: Antitumor effect of anisomycin derivatives in vivo
Into one group of 5 CDF1 mice, 1×10^6 P388 leukemia tumor cells were intraperitoneally transplanted. Beginning the next day, a 10 mg/kg portion of the test compound dissolved in 0.2 ml of a solution containing an equal volume of dimethylsulfoxide and saline was administered to the mice intraperitoneally once a day for 10 days. The increase in the life span of the mice in days (ILS) was determined according to the following equation: [formula]

Data set [9] is described as follows: Stability in the blood. The following applies: in words.
Data set [10] concerns protein synthesis. As to conditions: in words; J. Biol. Chem., vol. 242, p. 3226, 1967; cited from earlier work.
[11] abbreviates: 168 h, read-out: MIC (minimum concentration at which complete inhibition of growth occurred).

Turning to `COc1ccc(CC2NCC(O)C2OC(C)=O)cc1` (single isomer, unassigned) [Anisomycin, anisomycin], in [1] (rat plasma, 37° C., residual amount by HPLC, read-out: Half-life), the Half-life worked out at 0.05 h. For the same compound, the “IC50 (50% proliferation inhibition concentration)” value in data set [2] was found to be 0.02 µg/mL (≈ 0.0754 µM). Also, the “MIC (minimum concentration at which complete inhibition of growth occurred)” value was 100 µg/mL in data set [3]; 12.5 µg/mL in data set [4]; 25 µg/mL in data set [5]; more than 100 µg/mL in data set [6]; more than 100 µg/mL in data set [7]. Besides, the “ILS (increase in the life span of the mice)” value in [8] came out at 0%. In [9], the “stability in the blood” value was “extremely unstable in the blood and is rapidly hydrolyzed”. For the same compound, the cytotoxic activity entry in data set [10] is reported as “strong cytotoxic activity due to its inhibitory effect on protein synthesis”.
Turning to `CNC(=O)OC1C(O)CNC1Cc1ccc(OC)cc1` (stereo not shown) [Example 1, 3-O-methylcarbamoyl-deacetylanisomycin], the Half-life result in data set [1] was “No decomposition”. Besides, the IC50 in [2] came to 0.06 µg/mL (≈ 0.214 µM).
For the compound `COc1ccc(CC2NCC(O)C2OC(N)=O)cc1` (stereo not shown) [Example 2, 3-O-carbamoyldeacetylanisomycin], the Half-life entry in [1] is “No decomposition”.
Consider `COc1ccc(CC2NCC(O)C2OC(=O)NCCCc2ccccc2)cc1` (stereo not shown) [Example 5, 3-O-(3-phenylpropyl)carbamoyldeacetylanisomycin], for which the Half-life result in [1] is “No decomposition”.
`COc1ccc(CC2NCC(O)C2OC(=O)Nc2ccccc2)cc1` (stereo not shown) [Example 11, 3-O-phenylcarbamoyldeacetylanisomycin]: in data set [1], the Half-life entry is “No decomposition”.
As for `COc1ccc(CC2NCC(OC(C)=O)C2OC(N)=O)cc1` (stereo not shown) [Example 15, 4-O-acetyl-3-O-carbamoylanisomycin], in data set [1] (rat, plasma), the Half-life was determined as 6.67 h. Moreover, in [2], the IC50 is 0.039 µg/mL (≈ 0.126 µM).
On to `CCCCCC(=O)OC1CNC(Cc2ccc(OC)cc2)C1OC(N)=O` (stereo not shown) [Example 16, 4-O-hexanoyl-3-O-carbamoyldeacetylanisomycin], for which the IC50 in data set [2] stood at 0.039 µg/mL (≈ 0.107 µM).
On to `CCCCCCC(=O)OC1CNC(Cc2ccc(OC)cc2)C1OC(N)=O` (stereo not shown) [Example 17, 4-O-heptanoyl-3-O-carbamoyldeacetylanisomycin], for which the IC50 in data set [2] is 0.03 µg/mL (≈ 0.0793 µM).
For `CCCCCCCCCCCC(=O)OC1CNC(Cc2ccc(OC)cc2)C1OC(N)=O` (stereo not shown) [Example 18, 4-O-dodecanoyl-3-O-carbamoyldeacetylanisomycin], the IC50 in data set [2] was less than 0.02 µg/mL. The MIC in data set [3] (setting [11]) is 50 µg/mL (≈ 111 µM); in data set [4] (setting [11]) it was 25 µg/mL (≈ 55.7 µM); in data set [5] (setting [11]), 3.1 µg/mL (≈ 6.91 µM); in data set [6] (setting [11]), 50 µg/mL (≈ 111 µM); in [7] (Amylomyces rouxii, 168 h, read-out: MIC (minimum concentration at which complete inhibition of growth occurred)), 50 µg/mL (≈ 111 µM). Also, in [8], the “ILS (increase in the life span of the mice)” value amounted to 44%.
`COCOC1C(O)CNC1Cc1ccc(OC)cc1` (stereo not shown) [Example 22, 3-O-methoxymethyldeacetylanisomycin]: in data set [1], the Half-life entry was “No decomposition”. For the same compound, the IC50 in data set [2] was determined as 0.062 µg/mL (≈ 0.232 µM).

The values above are taken from US5463078A, “Anisomycin derivatives and anticancer agents, antifungal agents and antiprotozoan agents containing the same” (Ajinomoto Co., Inc., priority 1993, dated 1995).
